Where a name gives a salt, the structure may show the parent alone.
The molecules below were run against T1, HCV polymerase (Hepatitis C virus genotype 1b, UniProt P26663) (assay: biochemical). Conditions: not given.
T1 construct: a region encoding NS5B (J Virol 1991 March, 65(3), 1105-13, 544 amino acids after deletion of 47 amino acids on the C-terminal); 6xHis (C); made in house; host or cells: Escherichia coli
Design: species or system HCV BK strain
In short: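 His-tagged NS5B (BK strain, 47-aa C-terminal deletion, E. coli-expressed) at 0.5 μg/ml copied 5 μg/ml run-off RNA bearing the HCV 3′ UTR with 2 μM UTP plus [3H]UTP, 50 μM ATP/GTP, in pH 7.5 Tris with 5 mM MgCl2, 25 °C, 90 min. TCA-precipitated RNA was counted and IC50 calculated.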

T1 sequence (P26663 2420-2963): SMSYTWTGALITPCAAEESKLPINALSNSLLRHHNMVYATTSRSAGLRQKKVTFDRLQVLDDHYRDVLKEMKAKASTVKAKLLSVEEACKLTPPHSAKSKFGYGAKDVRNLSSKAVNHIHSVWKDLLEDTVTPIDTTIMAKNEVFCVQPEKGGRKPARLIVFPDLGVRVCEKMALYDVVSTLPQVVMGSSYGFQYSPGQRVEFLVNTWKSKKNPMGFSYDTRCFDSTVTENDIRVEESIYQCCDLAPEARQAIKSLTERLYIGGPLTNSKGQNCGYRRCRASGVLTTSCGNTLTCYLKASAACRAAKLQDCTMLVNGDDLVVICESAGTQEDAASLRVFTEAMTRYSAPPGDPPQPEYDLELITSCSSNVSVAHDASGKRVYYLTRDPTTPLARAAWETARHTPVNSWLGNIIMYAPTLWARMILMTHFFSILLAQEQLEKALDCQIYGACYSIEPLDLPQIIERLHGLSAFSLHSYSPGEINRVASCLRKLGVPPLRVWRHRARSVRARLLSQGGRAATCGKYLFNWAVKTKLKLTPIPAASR

`CC(C)(CNC(=O)OC(C)(C)C)NC(=O)c1ccc2c(C3CCCCC3)c3n(c2c1)CCOc1ccccc1-3` [Example 2-185, tert-butyl {2-[(12-cyclohexyl-6,7-dihydro-5-oxa-7a-azadibenzo[a,e]azulene-9-carbonyl)amino]-2-methylpropyl}carbamate] and `CC(C)(CNCC(=O)O)NC(=O)c1ccc2c(C3CCCCC3)c3n(c2c1)CCOc1ccccc1-3` [Example 2-187, (2-[(12-cyclohexyl-6,7-dihydro-5-oxa-7a-azadibenzo[a,e]azulene-9-carbonyl)amino]-2-methylpropylamino)acetic acid] fall in the same range of IC50: 100 to 1000 nM for the first, 100 to 1000 nM for the second.

`CC(C)(CN)NC(=O)c1ccc2c(C3CCCCC3)c3n(c2c1)CCOc1ccccc1-3` [Example 2-186, N-(2-amino-1,1-dimethylethyl)-12-cyclohexyl-6,7-dihydro-5-oxa-7a-azadibenzo[a,e]azulene-9-carboxamide monohydrochloride] and `CN(C)CC(C)(NC(=O)c1ccc2c(C3CCCCC3)c3n(c2c1)CCOc1ccccc1-3)C(=O)O` (centres unmarked) [Example 2-189, 2-[(12-cyclohexyl-6,7-dihydro-5-oxa-7a-azadibenzo[a,e]azulene-9-carbonyl)amino]-3-dimethylamino-2-methylpropionic acid] fall in the same range of IC50: 100 to 1000 nM for the first, 100 to 1000 nM for the second.

Compared with `CC(C)(COc1ccc([N+](=O)[O-])cc1)NC(=O)c1ccc2c(C3CCCCC3)c3n(c2c1)CCOc1ccccc1-3` [Example 2-188, N-[1,1-dimethyl-2-(4-nitrophenoxy)ethyl]-12-cyclohexyl-6,7-dihydro-5-oxa-7a-azadibenzo[a,e]azulene-9-carboxamide], `CC(C)(NC(=O)c1ccc2c(C3CCCCC3)c3n(c2c1)CCOc1ccccc1-3)C(=O)Nc1ccc(O)cc1` [Example 2-202, N-[1-(4-hydroxyphenylcarbamoyl)-1-methylethyl]-12-cyclohexyl-6,7-dihydro-5-oxa-7a-azadibenzo[a,e]azulene-9-carboxamide] is lower in IC50: 100 to 1000 nM for the first, under 100 nM for the second. The second is the more potent here.

First: CC(C)(NC(=O)c1ccc2c(C3CCCCC3)c3n(c2c1)CCOc1ccccc1-3)C(=O)N1CCC(O)CC1 [Example 2-190, N-[2-(4-hydroxypiperidin-1-yl)-1,1-dimethyl-2-oxoethyl]-12-cyclohexyl-6,7-dihydro-5-oxa-7a-azadibenzo[a,e]azulene-9-carboxamide]
Second: CC(C)(NC(=O)c1ccc2c(C3CCCCC3)c3n(c2c1)CCOc1ccccc1-3)C1CCC(C(=O)O)CC1 (centres unmarked) [Example 2-208, 4-{1-[(12-cyclohexyl-6,7-dihydro-5-oxa-7a-azadibenzo[a,e]azulene-9-carbonyl)amino]-1-methylethyl}cyclohexanecarboxylic acid]
The IC50 of the first is lower: under 100 nM for the first, 100 to 1000 nM for the second. The first is the more potent here.

First: O=C(O)c1ccc2c(C3CCCCC3)c3n(c2c1)CCOc1c-3cccc1N(CCN1CCCCC1)Cc1ccccc1 [Example 2-191, 4-{N-benzyl-N-[2-(piperidin-1-yl)ethyl]amino}-12-cyclohexyl-6,7-dihydro-5-oxa-7a-azadibenzo[a,e]azulene-9-carboxylic acid dihydrochloride]
Second: O=C(NCC1(O)CCCCC1)c1ccc2c(C3CCCCC3)c3n(c2c1)CCOc1ccccc1-3 [Example 2-206, N-(1-hydroxycyclohexylmethyl)-12-cyclohexyl-6,7-dihydro-5-oxa-7a-azadibenzo[a,e]azulene-9-carboxamide]
The IC50 of the first is lower: under 100 nM for the first, 100 to 1000 nM for the second. The first is the more potent here.

`O=C(Nc1ccc(O)cc1)c1ccc2c(C3CCCCC3)c3n(c2c1)CCOc1ccccc1-3` [Example 2-192, N-(4-hydroxyphenyl)-12-cyclohexyl-6,7-dihydro-5-oxa-7a-azadibenzo[a,e]azulene-9-carboxamide] and `O=C(NCCc1ccc(O)cc1)c1ccc2c(C3CCCCC3)c3n(c2c1)CCOc1ccccc1-3` [Example 2-205, N-[2-(4-hydroxyphenyl)ethyl]-12-cyclohexyl-6,7-dihydro-5-oxa-7a-azadibenzo[a,e]azulene-9-carboxamide] cannot be ordered by IC50: under 100 nM for the first, under 100 nM for the second.

`CC(C)(NC(=O)c1ccc2c(C3CCCCC3)c3n(c2c1)CCOc1ccccc1-3)C(=O)Nc1ccc(C(N)=O)cc1` [Example 2-193, N-[1-(4-carbamoylphenylcarbamoyl)-1-methylethyl]-12-cyclohexyl-6,7-dihydro-5-oxa-7a-azadibenzo[a,e]azulene-9-carboxamide] and `CN(C)C(=O)c1ccc(NC(=O)C(C)(C)NC(=O)c2ccc3c(C4CCCCC4)c4n(c3c2)CCOc2ccccc2-4)cc1` [Example 2-194, N-[1-(4-dimethylcarbamoylphenylcarbamoyl)-1-methylethyl]-12-cyclohexyl-6,7-dihydro-5-oxa-7a-azadibenzo[a,e]azulene-9-carboxamide] cannot be ordered by IC50: under 100 nM for the first, under 100 nM for the second.

`CC(C)(NC(=O)c1ccc2c(C3CCCCC3)c3n(c2c1)CCOc1ccccc1-3)C(=O)Nc1ccc(CO)cc1` [Example 2-195, N-[1-(4-hydroxymethylphenylcarbamoyl)-1-methylethyl]-12-cyclohexyl-6,7-dihydro-5-oxa-7a-azadibenzo[a,e]azulene-9-carboxamide] and `CN(C)Cc1ccc(NC(=O)C(C)(C)NC(=O)c2ccc3c(C4CCCCC4)c4n(c3c2)CCOc2ccccc2-4)cc1` [Example 2-213, N-[1-(4-dimethylaminomethylphenylcarbamoyl)-1-methylethyl]-12-cyclohexyl-6,7-dihydro-5-oxa-7a-azadibenzo[a,e]azulene-9-carboxamide] cannot be ordered by IC50: under 100 nM for the first, under 100 nM for the second.

`COC(=O)c1ccc2nc(C(C)(C)NC(=O)c3ccc4c(C5CCCCC5)c5n(c4c3)CCOc3ccccc3-5)[nH]c2c1` [Example 2-196, methyl 2-{1-[(12-cyclohexyl-6,7-dihydro-5-oxa-7a-azadibenzo[a,e]azulene-9-carbonyl)amino]-1-methylethyl}-3H-benzimidazole-5-carboxylate] and `CC(C)(NC(=O)c1ccc2c(C3CCCCC3)c3n(c2c1)CCOc1ccccc1-3)c1nc2ccccc2[nH]1` [Example 2-198, N-[1-(1H-benzimidazol-2-yl)-1-methylethyl]-12-cyclohexyl-6,7-dihydro-5-oxa-7a-azadibenzo[a,e]azulene-9-carboxamide] cannot be ordered by IC50: under 100 nM for the first, under 100 nM for the second.

`O=C(O)c1ccc2nc(CNC(=O)c3ccc4c(C5CCCCC5)c5n(c4c3)CCOc3ccccc3-5)[nH]c2c1` [Example 2-197, 2-{[(12-cyclohexyl-6,7-dihydro-5-oxa-7a-azadibenzo[a,e]azulene-9-carbonyl)amino]methyl}-3H-benzimidazole-5-carboxylic acid] and `CC(C)(NC(=O)c1ccc2c(C3CCCCC3)c3n(c2c1)CCOc1ccccc1-3)C(=O)Nc1cccc(C(=O)O)c1` [Example 2-201, 3-{2-[(12-cyclohexyl-6,7-dihydro-5-oxa-7a-azadibenzo[a,e]azulene-9-carbonyl)amino]-2-methylpropionylamino}benzoic acid] cannot be ordered by IC50: under 100 nM for the first, under 100 nM for the second.

`CC(C)(NC(=O)c1ccc2c(C3CCCCC3)c3n(c2c1)CCOc1ccccc1-3)c1nc2cc(Cl)ccc2[nH]1` [Example 2-199, N-[1-(5-chloro-1H-benzimidazol-2-yl)-1-methylethyl]-12-cyclohexyl-6,7-dihydro-5-oxa-7a-azadibenzo[a,e]azulene-9-carboxamide] and `COC(=O)c1[nH]c(C(C)(C)NC(=O)c2ccc3c(C4CCCCC4)c4n(c3c2)CCOc2ccccc2-4)nc1C` [Example 2-209, methyl 2-{1-[(12-cyclohexyl-6,7-dihydro-5-oxa-7a-azadibenzo[a,e]azulene-9-carbonyl)amino]-1-methylethyl]-5-methyl-3H-imidazole-4-carboxylate] cannot be ordered by IC50: under 100 nM for the first, under 100 nM for the second.

`Cc1ccc(NC(=O)C(C)(C)NC(=O)c2ccc3c(C4CCCCC4)c4n(c3c2)CCOc2ccccc2-4)cc1C(=O)O` [Example 2-200, 5-{2-[(12-cyclohexyl-6,7-dihydro-5-oxa-7a-azadibenzo[a,e]azulene-9-carbonyl)amino]-2-methylpropionylamino}-2-methylbenzoic acid] and `CC(C)(NC(=O)c1ccc2c(C3CCCCC3)c3n(c2c1)CCOc1ccccc1-3)C(=O)Nc1ccc(F)cc1` [Example 2-204, N-[1-(4-fluorophenylcarbamoyl)-1-methylethyl]-12-cyclohexyl-6,7-dihydro-5-oxa-7a-azadibenzo[a,e]azulene-9-carboxamide] cannot be ordered by IC50: under 100 nM for the first, under 100 nM for the second.

`CC(C)(NC(=O)c1ccc2c(C3CCCCC3)c3n(c2c1)CCOc1ccccc1-3)C(=O)NCCc1ccc(O)cc1` [Example 2-203, N-{1-[2-(4-hydroxyphenyl)ethylcarbamoyl]-1-methylethyl}-12-cyclohexyl-6,7-dihydro-5-oxa-7a-azadibenzo[a,e]azulene-9-carboxamide] and `NC(=O)[C@H](Cc1ccc(O)cc1)NC(=O)c1ccc2c(C3CCCCC3)c3n(c2c1)CCOc1ccccc1-3` [Example 2-207, N—[(S)-1-carbamoyl-2-(4-hydroxyphenyl)ethyl]-12-cyclohexyl-6,7-dihydro-5-oxa-7a-azadibenzo[a,e]azulene-9-carboxamide] cannot be ordered by IC50: under 100 nM for the first, under 100 nM for the second.

`CC(C)(CNC(=O)c1ccc(C(=O)O)cc1)NC(=O)c1ccc2c(C3CCCCC3)c3n(c2c1)CCOc1ccccc1-3` [Example 2-211, N-{2-[(12-cyclohexyl-6,7-dihydro-5-oxa-7a-azadibenzo[a,e]azulene-9-carbonyl)amino]-2-methylpropyl}terephthalamic acid] and `COC(=O)c1ccc(C(=O)NCC(C)(C)NC(=O)c2ccc3c(C4CCCCC4)c4n(c3c2)CCOc2ccccc2-4)cc1` [Example 2-212, methyl N-{2-[(12-cyclohexyl-6,7-dihydro-5-oxa-7a-azadibenzo[a,e]azulene-9-carbonyl)amino]-2-methylpropyl}-terephthalamate] fall in the same range of IC50: 100 to 1000 nM for the first, 100 to 1000 nM for the second.

Same assay, conditions: read-out: HCV polymerase inhibitory activity IC50; 25° C., 90 min; [5,6-3H]UTP incorporation into RNA

For `COC(=O)C(Cc1c[nH]c2ccc(O)cc12)NC(=O)c1ccc2c(C3CCCCC3)c3n(c2c1)CCOc1ccccc1-3` (centres unmarked) [Example 2-210], the IC50 was under 100 nM.

Source: US20070049593A1 (priority 2004, published 2007)
